Values of other authors as cited in patent US20110151028A1, “Topical vaginal preparation” (priority 2009, published 2011).

Conditions: carrier: standard hydrophilic transdermal carrier, propylene glycol

systemic absorption of transdermally delivered erythromycin: rapid systemic absorption
Structure (SMILES): CC[C@H]1OC(=O)[C@H](C)[C@@H](O[C@H]2C[C@@](C)(OC)[C@@H](O)[C@H](C)O2)[C@H](C)[C@@H](O[C@@H]2O[C@H](C)C[C@H](N(C)C)[C@H]2O)[C@](C)(O)C[C@@H](C)C(=O)[C@H](C)[C@@H](O)[C@]1(C)O [erythromycin]
